In patent publication US9382226B2, “Aldosterone synthase inhibitors” (Merck Sharp & Dohme Corp., priority 2010, dated 2016):

Columns and labels:
human CYP11B2 = target: T1, human CYP11B2 (Homo sapiens, UniProt P19099); test: V79-Human-CYP11B2 cell assay (aldosterone formation, HTRF); assay type: cell-based; details: V79 cells stably expressing human CYP11B2; substrate 125 nM 11-deoxycorticosterone; 3 hours
T1 construct: expressed in transfected cells; host or cells: V79 cells (clone V79-hCYP11B2-CLE9)
T1 sequence (P19099 25-503): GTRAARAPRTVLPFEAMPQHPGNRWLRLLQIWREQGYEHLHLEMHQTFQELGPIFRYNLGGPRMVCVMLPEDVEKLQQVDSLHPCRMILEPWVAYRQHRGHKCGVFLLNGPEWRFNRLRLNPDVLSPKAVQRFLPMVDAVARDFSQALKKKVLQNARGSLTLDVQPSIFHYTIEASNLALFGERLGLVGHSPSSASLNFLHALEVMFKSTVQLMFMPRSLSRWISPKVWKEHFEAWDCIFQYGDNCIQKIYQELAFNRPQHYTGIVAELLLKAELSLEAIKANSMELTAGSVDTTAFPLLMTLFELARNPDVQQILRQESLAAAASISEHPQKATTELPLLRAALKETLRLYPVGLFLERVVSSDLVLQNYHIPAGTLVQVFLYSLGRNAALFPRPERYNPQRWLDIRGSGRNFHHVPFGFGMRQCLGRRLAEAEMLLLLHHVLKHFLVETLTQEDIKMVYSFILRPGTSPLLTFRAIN
Protocol: (§1) Methods for V79-Human-CYP11B2 and V79-Human-CYP11B1 Assays: V79 cell lines stably expressing the either the human CYP11B2 or the human CYP11B1 enzyme were generated using a standard transfection protocol. V79 cells were transfected with plasmids pTriEx3-Hygro-hCyp11B2 or pTriEx3-Hygro-hCyp11B1 using Lipofectamine2000 reagent. V79 cells that stably express the human CYP11B2 or human CYP11B1 enzyme were selected for and maintained in DMEM supplemented with 10% FBS and 400 μg/mL hygromycin for ˜2 weeks. Single cell clones were generated by […] in DMEM supplemented with 10% FBS and 400 μg/mL hygromycin until single colonies were obtained. Clones V79-hCYP11B2-CLE9 and V79-hCYP11B1-8C7, were determined to produce the most aldosterone and cortisol, respectively, and were selected for inhibitor screening. For testing of inhibitors, cells were harvested at 80% confluency with 0.5% Trypsan-EDTA, washed once in PBS, and reconstituted in DMEM 0.1% BSA media at a cell concentration of 400,000 cells/mL. 25 μl of cells were added to a 384 well tissue culture treated plate and mixed with 0.25 μl of inhibitor or DMSO (1% final DMSO concentration) for 1 hour at 37° C., 5% CO2. After pre-incubation with inhibitor, the reaction was initiated by adding 5 μl of substrate (final concentration of 125 nM 11-deoxycorticosterone for the CYP11B2 assay or 250 nM 11-deoxycortisol for the CYP11B1 assay). The reaction was carried out for 3 hours at 37° C., 5% CO2 and was stopped by harvesting the supernatants. The amount of product in the supernatant (aldosterone for CYP11B2 assay and cortisol for the CYP11B1 assay) was measured using HTRF-based assay kit (Aldosterone HTRF-CisBio#64ALDPEB, Cortisol HTRF-CisBio #63IDC002-CORT). IC50's for the inhibitor were determined by plotting the amount of product formed against the concentration of inhibitor using sigmoidal dose-response curve (variable slope) fit in GraphPad.

human CYP11B1 = target: T2, human CYP11B1 (Homo sapiens, UniProt P15538); test: V79-Human-CYP11B1 cell assay (cortisol formation, HTRF); assay type: cell-based; details: V79 cells stably expressing human CYP11B1; substrate 250 nM 11-deoxycortisol; 3 hours
T2 construct: expressed in transfected cells; host or cells: V79 cells (clone V79-hCYP11B1-8C7)
T2 sequence (P15538 25-503): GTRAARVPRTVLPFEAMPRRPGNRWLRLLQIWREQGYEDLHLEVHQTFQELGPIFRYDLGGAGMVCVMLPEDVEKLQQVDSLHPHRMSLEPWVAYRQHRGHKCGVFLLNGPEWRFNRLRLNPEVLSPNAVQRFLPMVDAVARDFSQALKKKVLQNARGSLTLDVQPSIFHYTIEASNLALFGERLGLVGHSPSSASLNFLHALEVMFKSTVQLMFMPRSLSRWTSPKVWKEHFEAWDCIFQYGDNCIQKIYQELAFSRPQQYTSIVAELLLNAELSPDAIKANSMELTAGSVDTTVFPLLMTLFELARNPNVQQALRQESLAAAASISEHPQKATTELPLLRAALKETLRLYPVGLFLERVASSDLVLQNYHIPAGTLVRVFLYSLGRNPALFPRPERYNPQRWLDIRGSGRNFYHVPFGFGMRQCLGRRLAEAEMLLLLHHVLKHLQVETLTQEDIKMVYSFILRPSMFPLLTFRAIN
Protocol: as §1, with “Clones V79-hCYP11B2-CLE9 and V79-hCYP11B1-8C7, were determined to produce the most aldosterone and cortisol, respectively, and were selected for inhibitor screening.” left out, “After pre-incubation with inhibitor, the reaction was initiated by adding 5 μl of substrate (final concentration of 125 nM 11-deoxycorticosterone for the CYP11B2 assay or 250 nM 11-deoxycortisol for the CYP11B1 assay).” left out

| IC50 (human CYP11B2) [nM] | IC50 (human CYP11B1) [nM] | Compound |
| --- | --- | --- |
| 2.85 | 563 | Cn1c(-c2cnccc2C(F)(F)F)nc2cc(F)c(Cl)cc21 [Example 335, 6-chloro-5-fluoro-1-methyl-2-[4-(trifluoromethyl)pyridin-3-yl]-1H-benzimidazole] |
| 0.5 | 71.5 | Fc1cncc(-c2nc3cc(F)c(F)cc3n2OCc2ccccc2)c1 [Example 373, 1-(benzyloxy)-5,6-difluoro-2-(5-fluoropyridin-3-yl)-1H-benzimidazole] |
